Patent US20130281397A1, “TREATMENT OF DISEASES BY EPIGENETIC REGULATION” (RVX Therapeutics Inc., priority 2012, published 2013)
Counter-ions that a name gives are not always drawn.

These compounds were tested against T1, Brd4 bromodomain 1 (Homo sapiens, UniProt O60885) (assay: Inhibition of binding of tetra-acetylated histone H4 and Brd4 bromodomain 1 by TR-FRET). Conditions: His-tagged bromodomain 200 nM, biotinylated tetra-acetylated histone H4 peptide 25-50 nM, 2 hours at room temperature.
T1 construct: made in house; host or cells: E. coli BL21(DE3)
Procedure: Proteins were cloned and overexpressed with a N-terminal 6×His tag, then purified by nickel affinity followed by size exclusion chromatography. Briefly, E. coli BL21(DE3) cells were transformed with a recombinant expression vector encoding N-terminally […] tagged bromodomains from Brd2, Brd3, or Brd4. Cell cultures were incubated at 37° C. with shaking to the appropriate density and induced overnight with IPTG. The supernatant of lysed cells was loaded onto Ni-IDA column for purification. Eluted protein was pooled, concentrated and further purified by size exclusion chromatography. Fractions representing monomeric protein were pooled, concentrated, aliquoted, and frozen at −80° C. for use in subsequent experiments.
For inhibition assays, serially diluted test compound was added to these reactions in a 0.2% final concentration of DMSO. Final buffer concentrations were 30 mM HEPES pH 7.4, 30 mM NaCl, 0.3 mM CHAPS, 20 mM phosphate pH 7.0, 320 mM KF, 0.08% BSA). […] The binding inhibitory activity was shown by a decrease in 665 nm fluorescence relative to 620 nm. IC50 values were determined from a dose response curve.

| Structure (SMILES) | FRET activity (<50 uM) |
| --- | --- |
| N=C(N)NCCC[C@H](N)C(=O)Oc1ccc(-c2cc3ccccc3c(=O)[nH]2)cc1 (stereo in doubt) [Example 2, 4-(1-Oxo-1,2-dihydroisoquinolin-3-yl)phenyl 2-amino-5-guanidinopentanoate trihydrochloride] | Active |
| Cc1cc(-c2cc3ncccc3c(=O)[nH]2)cc(C)c1O [Example 5, 7-(4-hydroxy-3,5-dimethylphenyl)-1,6-naphthyridin-5(6H)-one] | Inactive |
| COc1cc(OC)c2c(=O)[nH]c(-c3cc(C)c(OCCO)c(C)c3)cc2c1 [Example 6, 3-(4-(2-hydroxyethoxy)-3,5-dimethylphenyl)-6,8-dimethoxyisoquinolin-1(2H)-one] | Active |
| COc1cc(OC)c2c(=O)[nH]c(-c3cc(C)c(OCCN(C)C)c(C)c3)cc2c1 [Example 7, 3-(4-(2-(dimethylamino)ethoxy)-3,5-dimethylphenyl)-6,8-dimethoxyisoquinolin-1(2H)-one] | Active |
| COc1cc(O)nc2cc(-c3cc(C)c(O)c(C)c3)[nH]c(=O)c12 [Example 9, 2-hydroxy-7-(4-hydroxy-3,5-dimethylphenyl)-4-methoxy-1,6-naphthyridin-5(6H)-one] | Inactive |
| COc1cc(OC)c2c(=O)[nH]c(-c3cc(C)c(O)c(C)c3)cc2n1 [Example 13, 7-(4-hydroxy-3,5-dimethylphenyl)-2,4-dimethoxy-1,6-naphthyridin-5(6H)-one] | Active |
| COc1cc2cc(-c3cc(C)c(O)c(C)c3)n(C)c(=O)c2c(OC)c1CN1CCOCC1 [Example 14, 3-(4-hydroxy-3,5-dimethylphenyl)-6,8-dimethoxy-2-methyl-7-(morpholinomethyl)isoquinolin-1(2H)-one] | Inactive |
| COc1cc(OC)c2c(=O)[nH]c(-c3cc(C)c(OCCN4CCOCC4)c(C)c3)cc2c1 [Example 15, 3-(3,5-dimethyl-4-(2-morpholinoethoxy)phenyl)-6,8-dimethoxyisoquinolin-1(2H)-one] | Active |
| COc1cc(OC)c2c(=O)[nH]c(-c3cc(C)c(OCCN4CCN(C)CC4)c(C)c3)cc2c1 [Example 18, 3-(3,5-dimethyl-4-(2-(4-methylpiperazin-1-yl)ethoxy)phenyl)-6,8-dimethoxyisoquinolin-1(2H)-one] | Active |
| COc1cc(OC)c2c(=O)[nH]c(-c3ccc(O)cc3)nc2c1 [Example 19, 2-(4-hydroxyphenyl)-5,7-dimethoxyquinazolin-4(3H)-one] | Active |
| COc1cc(OC)c2c(=O)[nH]c(-c3ccc(OCC(=O)O)cc3)nc2c1 [Example 20, 2-(4-(5,7-dimethoxy-4-oxo-3,4-dihydroquinazolin-2-yl)phenoxy)acetic acid] | Active |
| COc1cc(OC)c2c(=O)[nH]c(-c3ccccn3)nc2c1 [Example 21, 5,7-dimethoxy-2-(pyridin-2-yl)quinazolin-4(3H)-one] | Active |
| COc1cc(OC)c2c(=O)[nH]c(-c3cccnc3)nc2c1 [Example 22, 5,7-dimethoxy-2-(pyridin-3-yl)quinazolin-4(3H)-one] | Active |
| COc1cc(OC)c2c(=O)[nH]c(-c3ccncc3)nc2c1 [Example 28, 5,7-dimethoxy-2-(pyridin-4-yl)quinazolin-4(3H)-one] | Inactive |
| Cc1cc(-c2nc3ccccc3c(=O)[nH]2)cc(C)c1OCCN1CCOCC1 [Example 29, 2-(3,5-dimethyl-4-(2-morpholinoethoxy)phenyl)quinazolin-4(3H)-one] | Inactive |
| COc1cc(OC)c2c(=O)[nH]c(-c3ccc(N4CCOCC4)cc3)nc2c1 [Example 44, 5,7-dimethoxy-2-(4-morpholinophenyl)quinazolin-4(3H)-one] | Active |
| COc1cc(OC)c2c(=O)[nH]c(-c3ccc(CN4CCN(C)CC4)cc3)nc2c1 [Example 54, 5,7-dimethoxy-2-(4-((4-methylpiperazin-1-yl)methyl)phenyl)quinazolin-4(3H)-one] | Active |
| Cc1cc(-c2nc3ccc(Br)cc3c(=O)[nH]2)cc(C)c1OCCO [Example 89, 6-bromo-2-(4-(2-hydroxyethoxy)-3,5-dimethylphenyl)quinazolin-4(3H)-one] | Inactive |

Results, then the compound that gave them:

| FRET activity (<50 uM) | Structure (SMILES) |
| --- | --- |
| Active | COc1cc(OC)c2c(=O)[nH]c(-c3ccc(CN4CCOCC4)cc3)nc2c1 [Example 61, 5,7-dimethoxy-2-(4-(morpholinomethyl)phenyl)quinazolin-4(3H)-one] |
| Active | CCN1CCN(Cc2ccc(-c3nc4cc(OC)cc(OC)c4c(=O)[nH]3)cc2)CC1 [Example 62, 2-(4-((4-ethylpiperazin-1-yl)methyl)phenyl)-5,7-dimethoxyquinazolin-4(3H)-one] |
| Inactive | COc1ccc2nc(-c3cc(C)c(OCCO)c(C)c3)[nH]c(=O)c2c1 [Example 76, 2-(4-(2-hydroxyethoxy)-3,5-dimethylphenyl)-6-methoxyquinazolin-4(3H)-one] |
| Inactive | COc1cc(OC)c2c(=O)[nH]c(-c3ccccc3Cl)nc2c1 [Example 77, 2-(2-chlorophenyl)-5,7-dimethoxyquinazolin-4(3H)-one] |
| Active | COc1cccc2nc(-c3cc(C)c(OCCO)c(C)c3)[nH]c(=O)c12 [Example 78, 2-(4-(2-hydroxyethoxy)-3,5-dimethylphenyl)-5-methoxyquinazolin-4(3H)-one] |
| Active | COc1cc(OC)c2c(=O)[nH]c(-c3cccc(-c4ccc(S(C)(=O)=O)cc4)n3)nc2c1 [Example 80, 5,7-dimethoxy-2-(6-(4-(methylsulfonyl)phenyl)pyridin-2-yl)quinazolin-4(3H)-one] |
| Active | COc1cc(OC)c2c(=O)[nH]c(-c3cccc(C)n3)nc2c1 [Example 81, 5,7-dimethoxy-2-(6-methylpyridin-2-yl)quinazolin-4(3H)-one] |
| Inactive | COc1cc(OC)c2c(=O)[nH]c(-c3cccc(-c4ccc(SC)cc4)n3)nc2c1 [Example 82, 5,7-dimethoxy-2-(6-(4-(methylthio)phenyl)pyridin-2-yl)quinazolin-4(3H)-one] |
| Inactive | COc1cc(OC)c2c(=O)[nH]c(-c3cc(C)nc(Cl)c3)nc2c1 [Example 83, 2-(2-chloro-6-methylpyridin-4-yl)-5,7-dimethoxyquinazolin-4(3H)-one] |
| Active | COc1cc(OC)c2c(=O)[nH]c(-c3cc(C)c(OC)c(C)c3)nc2c1 [Example 84, 5,7-dimethoxy-2-(4-methoxy-3,5-dimethylphenyl)quinazolin-4(3H)-one] |
| Active | COc1cc(OC)c2c(=O)[nH]c(-c3cc(C)c(N)c(C)c3)nc2c1 [Example 85, 2-(4-amino-3,5-dimethylphenyl)-5,7-dimethoxyquinazolin-4(3H)-one] |
| Active | COc1cc(OC)c2c(=O)[nH]c(-c3cc(C)cc(C)c3)nc2c1 [Example 86, 2-(3,5-dimethylphenyl)-5,7-dimethoxyquinazolin-4(3H)-one] |
| Active | COc1cc(OC)c2c(=O)[nH]c(-c3cc(C)c(/N=C/N(C)C)c(C)c3)nc2c1 [Example 87, (E)-N′-(4-(5,7-dimethoxy-4-oxo-3,4-dihydroquinazolin-2-yl)-2,6-dimethylphenyl)-N,N-dimethylformimidamide] |
| Inactive | Cc1cc(-c2nc3ccc(Br)cc3c(=O)[nH]2)cc(C)c1O [Example 88, 6-bromo-2-(4-hydroxy-3,5-dimethylphenyl)quinazolin-4(3H)-one] |
| Inactive | COc1cc(OC)c2c(=O)[nH]c(-c3cc(C)c(OCc4ccccc4)c(C)c3)nc2c1 [Example 90, 2-(4-(benzyloxy)-3,5-dimethylphenyl)-5,7-dimethoxyquinazolin-4(3H)-one] |
| Active | COc1cc(OC)c2c(=O)[nH]c(-c3ccc(OCCO)c(C)c3)nc2c1 [Example 91, 2-(4-(2-hydroxyethoxy)-3-methylphenyl)-5,7-dimethoxyquinazolin-4(3H)-one] |
| Active | COc1cc(OC)c2c(=O)[nH]c(-c3ccc(O)c(C)c3)nc2c1 [Example 92, 2-(4-hydroxy-3-methylphenyl)-5,7-dimethoxyquinazolin-4(3H)-one] |
| Active | CNC(=O)c1ccccc1C(=O)NCCOc1c(C)cc(-c2nc3cc(OC)cc(OC)c3c(=O)[nH]2)cc1C [Example 93, N1-(2-(4-(5,7-dimethoxy-4-oxo-3,4-dihydroquinazolin-2-yl)-2,6-dimethylphenoxy)ethyl)-N2-methylphthalamide] |
| Inactive | COc1ccc(S(=O)(=O)NCCOc2c(C)cc(-c3nc4cc(OC)cc(OC)c4c(=O)[nH]3)cc2C)cc1 [Example 94, N-(2-(4-(5,7-dimethoxy-4-oxo-3,4-dihydroquinazolin-2-yl)-2,6-dimethylphenoxy)ethyl)-4-methoxybenzenesulfonamide] |
| Inactive | COc1cc(OC)c2c(=O)[nH]c(-c3cc(C)c(OCCNS(=O)(=O)c4ccc(Cl)cc4)c(C)c3)nc2c1 [Example 95, 4-chloro-N-(2-(4-(5,7-dimethoxy-4-oxo-3,4-dihydroquinazolin-2-yl)-2,6-dimethylphenoxy)ethyl)benzenesulfonamide] |
